Measured values taken from paper PMC7582737, “Melanocortin Receptor 4 (MC4R) Signaling System in Nile Tilapia” (International Journal of Molecular Sciences, 2020).

Columns and labels:
[1] = tested on: MC4R; parameters: method as in PMID 24085819, PMID 31398355, PMID 31299224, PMID 32922362; details: mammalian peptides; cited from earlier work
[2] = tested on: rainbow trout; details: cited from earlier work
[3] = tested on: goldfish; details: cited from earlier work
From the text: In the brain, all genes were detected to be highly or moderately expressed. This finding is consistent with previous reports in teleosts, such as zebrafish and medaka, in which all the genes are expressed in the brain as detected by qRT-PCR assays.

[4] = tested on: zebrafish; details: ip/icv injection of MC4R agonist; cited from earlier work
[5] = tested on: tilapia MC4R + MRAP2b; details: HEK293 cells; cited from earlier work
From the text: The presence of all MC4R signaling components in tilapia led us to further examine their interaction in vitro. […] Our finding partly agrees with recent findings in spotted gar, tilapia, topmouth culter, and zebrafish, showing that MC4R could be activated by mam ...

[6] = biological target: tilapia melanocortin receptor 4 (MC4R), N-terminally 3xFlag-tagged (Nile tilapia (Oreochromis niloticus))
[7] = biological target: tilapia melanocortin receptor 4 (MC4R), N-terminally 3xFlag-tagged (Nile tilapia (Oreochromis niloticus)); remark: listed apart in the source
[8] = ip/icv injection of MC4R agonist

| EC50 of activating the cAMP/PKA signaling pathway (pGL3-CRE-luciferase reporter) in CHO cells expressing tilapia MC4R in the presence of MRAP2b [7] | EC50 of activating the cAMP/PKA signaling pathway (pGL3-CRE-luciferase reporter) in CHO cells expressing tilapia MC4R, without MRAP2b [7] [nM] | Molecule | activation of MC4R, relative potency (in words) [1] | further results |
| --- | --- | --- | --- | --- |
| – | – | NDP-α-MSH | with similar potencies | – |
| – | – | MTII | – | effect on feeding, rainbow trouts [2, 8]: reduce the feeding; effect on feeding, goldfish [3, 8]: reduce the feeding; effect on feeding, zebrafish [4]: reduce the feeding |
| – | – | HS024 | – | effect on food intake, rainbow trout ([2]; injection of MC4R antagonist): stimulate food intake; effect on food intake, goldfish ([3]; injection of MC4R antagonist): stimulate food intake |
| – | – | ACTH1-39 | with similar potencies | effect of MRAP2b on EC50 value in activating tilapia MC4R [5]: cannot significantly alter the EC50 value |
| – | – | ACTH1-24: mammalian ACTH1-24 (cited) | with similar potencies | – |
| – | – | tilapia melanocortin-2 receptor accessory protein 2b (MRAP2b), N-terminally Myc-tagged (natural protein) | – | sensitivity and selectivity of MC4R for ACTH(1-40) with MRAP2b co-expressed, against MC4R alone (EC50 0.246 nM vs. 0.032 nM; pGL3-CRE-luciferase reporter, CHO cells) [6]: 8 fold |
| 0.572 nM | 0.421 | DGSYKMKHFRWSGPPAS [tilapia β-MSH (derived from the POMCa1 precursor)] | – | – |
| 0.786 nM | 0.955 | Ac-SYSMEHFRWGKPV-NH2 [tilapia α-MSH (acetyl-α-MSH with an amidated C-terminus; derived from the POMCa1 precursor)] | – | – |
| 32 pM | 0.246 | SYSMEHFRWGKPVGRKRRPVKVYTSNGVAEESAEVFPEEM [tilapia ACTH(1-40) (derived from the POMCa1 precursor)] | – | – |
